Measurements published in US20150344485A1, “BICYCLIC PYRIMIDONE COMPOUNDS AS INHIBITORS OF LP-PLA2” (GLAXOSMITHKLINE INTELLECTUAL PROPERTY DEVELOPMENT LIMITED, priority 2013, published 2015).
Like-named read-outs stand apart in the source and are kept apart here.

What was measured:
[1] = molecular target: T1, recombinant human Lp-PLA2 (Homo sapiens, UniProt Q13093); assay: Recombinant human Lp-PLA2 assay (rhLp-PLA2, PED6 assay); assay type: biochemical
T1 sequence (Q13093 22-441): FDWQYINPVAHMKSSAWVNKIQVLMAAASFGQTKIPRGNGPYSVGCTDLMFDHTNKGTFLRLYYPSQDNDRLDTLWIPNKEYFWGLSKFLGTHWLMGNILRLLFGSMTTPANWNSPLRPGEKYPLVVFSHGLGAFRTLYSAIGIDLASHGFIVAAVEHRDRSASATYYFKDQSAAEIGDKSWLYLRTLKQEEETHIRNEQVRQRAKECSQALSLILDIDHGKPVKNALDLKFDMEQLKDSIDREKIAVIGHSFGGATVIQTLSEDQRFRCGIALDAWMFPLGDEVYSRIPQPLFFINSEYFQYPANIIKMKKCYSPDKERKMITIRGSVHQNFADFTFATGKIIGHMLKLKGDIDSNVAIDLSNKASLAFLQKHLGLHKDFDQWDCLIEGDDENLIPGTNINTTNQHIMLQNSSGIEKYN
Excerpt: (1) Recombinant Human Lp-PLA2 Assay (rhLp-PLA2) (Also Referred to as “PED6” Assay)
N-((6-(2,4-dinitrophenyl)amino)-hexanoyl)-2-(4,4-difluoro-5,7-dimethyl-4-bora-3a,4a-diaza-s-indacene-3-pentanoyl)-1-hexadecanoyl-sn-glycero-3-phosphoethanolamine, triethylammonium salt (PED6) is a commercially available fluorescently-labeled phospholipid, which is commercially available from Invitrogene and Molecular Probes. There is a quenching para-nitro phenyl (PNP) group in the sn3 position and a Bodipy fluorescein (FL) group in the sn2 position. Upon cleavage with Lp-PLA2, the Bodipy FL group is liberated and then may result in an increase in fluorescence. Inhibitors of Lp-PLA2 therefore prevent this cleavage and no fluorescent increase is observed.
The PED6 assay was run as an unquenched 10 μL assay. The source plate containing the compounds to be tested was prepared by making 1:3 (by volume) serial dilution of the compounds within DMSO on 384-well microplate. Then, 0.01 μL of the compounds on compound source plate were transferred into 384 well Greiner 784076 (black) plates using ECHO liquid dispenser. 5 μL of recombinant human Lp-PLA2 enzyme (4 nM (or 110 pM) rhLp-PLA2 in assay buffer of 50 mM HEPES, pH 7.4, 150 mM NaCl, 1 mM CHAPS) was added to each well of the plate. Plates were centrifuged for 10 sec at 500 rpm. After 30 minutes preincubation, 5 μL of substrate (4 μM (or 5 μM) PED6 [from 5 mM DMSO stock] in assay buffer of 50 mM HEPES, pH 7.4, 150 mM NaCl, 1 mM CHAPS) was added to 384 well Greiner 784076 (black) plates. Plates were centrifuged for 10 sec at 500 rpm. The plate was covered to protect it from light and incubated for 20 min at room temperature. The plates were read for fluorescence intensity at ex: 480/em: 540 using ViewLux microplate imager for Envision spectrofluroimeters. pIC50 data, curve and QC analysis was conducted by using XL fit module in Excel.

[2] = molecular target: T2, Lp-PLA2 in human plasma (Homo sapiens, UniProt Q13093); assay: Lp-PLA2 human plasma assay (Thio-PAF assay); assay type: biochemical; conditions: pooled human plasma; read-out: pIC50 values in the thio-PAF assay (converted)
T2 construct: from tissue; host or cells: pooled human plasma
T2 sequence (Q13093 22-441): T1 sequence (Q13093 22-441)
Excerpt: The human plasma assay utilizes a thioester analog of PAF (phosphatidylcholine), where hydrolysis yields to the formation of a phospholipid containing a free thiol group. The amount of thiol is quantitated continuously by reacting with CPM (7-diethylamino-3-(4′-maleimidylphenyl)-4-methylcoumarin), a maleimide which increases in fluoresence after Michael addition of thiols. This assay may detect the activity of Lp-PLA2 in human plasma, as determined by specific inhibition by Lp-PLA2 inhibitors.
The thio-PAF assay was run as a quenched 15 μL assay. Compounds source plate was prepared by making 1:3 (by volume) serial dilution of the compounds into pure DMSO on 384-well microplate. 0.01 μL of compounds on compound source plate were transferred to 384 well Greiner 784076 (black) low-volume plates by ECHO liquid dispenser. 8 μL pooled human plasma, which was previously aliquoted and frozen, was added. Plates were centrifuged for 10 sec at 500 rpm. After 30 minutes preincubation, 2 μL of substrate solution comprising 2.5 mM 2-thio-PAF [from ethanol stock], 32 μM CPM [from a DMSO stock] and 3.2 mM NEM (N-ethylmaleimide) [made fresh daily in DMSO] in assay buffer of 50 mM HEPES, pH 7.4, 150 mM NaCl, 1 mM CHAPS was added to 384 well Greiner 784076 (black) low-volume plates by BRAVO liquid handling station. After 2 mins, reaction was quenched with 5 μL of 5% aqueous trifluoroacetic acid (TFA). Plates were covered to protect from light and incubated for 40 min at room temperature. Plates were read at ex: 380/em: 485 using-Envision microplate reader. pIC50 data, curve and QC analysis was conducted by using XLFit module in Excel.

[3] = read-out: rhLp-PLA2 (PED6 assay) (pIC50) (converted)
[4] = read-out: pIC50 values in the recombinant human Lp-PLA2 assay (converted)

IC50 [1, 3] [nM] | IC50 [1, 4] [nM] | IC50 [2] [nM] | SMILES
7.94 | – | – | C[C@@H]1CCn2c(cc(OCc3ccc(OC4CCCC4)c(F)c3)nc2=O)N1C [E48, (R)-8-((4-(cyclopentyloxy)-3-fluorobenzyl)oxy)-1,2-dimethyl-3,4-dihydro-1H-pyrimido[1,6-a]pyrimidin-6(2H)-one]
– | ≤ 1 | ≤ 100 | C[C@H]1CCn2c(cc(OCc3cc(F)c(Oc4ccc(F)c(Cl)c4)c(F)c3)nc2=O)N1C [E106, (S)-8-((4-(3-chloro-4-fluorophenoxy)-3,5-difluorobenzyl)oxy)-1,2-dimethyl-3,4-dihydro-1H-pyrimido[1,6-a]pyrimidin-6(2H)-one]
– | ≤ 1 | ≤ 10 | C[C@H]1CCn2c(cc(OCc3ccc(Oc4ccc(C(F)(F)F)cc4)c(F)c3)nc2=O)N1C [E93, (S)-8-((3-fluoro-4-(4-(trifluoromethyl)phenoxy)benzyl)oxy)-1,2-dimethyl-3,4-dihydro-1H-pyrimido[1,6-a]pyrimidin-6(2H)-one]
– | ≤ 1 | ≤ 100 | C[C@H]1CCn2c(cc(OCc3ccc(Oc4ccc(F)c(F)c4)c(F)c3)nc2=O)N1C [E86, (S)-8-((4-(3,4-difluorophenoxy)-3-fluorobenzyl)oxy)-1,2-dimethyl-3,4-dihydro-1H-pyrimido[1,6-a]pyrimidin-6(2H)-one]
– | ≤ 1 | ≤ 100 | C[C@H]1CCn2c(cc(OCc3cc(F)c(F)c(F)c3)nc2=O)N1C [E35, (S)-1,2-dimethyl-8-((3,4,5-trifluorobenzyl)oxy)-3,4-dihydro-1H-pyrimido[1,6-a]pyrimidin-6(2H)-one]
– | ≤ 1 | ≤ 10 | C[C@H]1CCn2c(cc(OCc3ccc(Oc4ccc(F)c(C(F)(F)F)c4)cc3)nc2=O)N1C [E84, (S)-8-((4-(4-fluoro-3-(trifluoromethyl)phenoxy)benzyl)oxy)-1,2-dimethyl-3,4-dihydro-1H-pyrimido[1,6-a]pyrimidin-6(2H)-one]
0.126 | ≤ 1 | – | CC(C)Oc1c(F)cc(COc2cc3n(c(=O)n2)CC[C@@H](C)N3C)cc1F [E82, (R)-8-((3,5-difluoro-4-isopropoxybenzyl)oxy)-1,2-dimethyl-3,4-dihydro-1H-pyrimido[1,6-a]pyrimidin-6(2H)-one]
– | ≤ 1 | ≤ 10 | C[C@@H]1CCn2c(cc(OCc3ccc(Oc4ccc(C(F)(F)F)nc4)c(C#N)c3)nc2=O)N1C [E115, (R)-5-(((1,2-dimethyl-6-oxo-2,3,4,6-tetrahydro-1H-pyrimido[1,6-a]pyrimidin-8-yl)oxy)methyl)-2-((6-(trifluoromethyl)pyridin-3-yl)oxy)benzonitrile]
– | ≤ 1 | ≤ 100 | CC1CCn2c(cc(OCc3ccc(F)c(F)c3)nc2=O)N1C (stereo not drawn) [E7, 8-((3,4-difluorobenzyl)oxy)-1,2-dimethyl-3,4-dihydro-1H-pyrimido[1,6-a]pyrimidin-6(2H)-one]
– | ≤ 1 | – | C[C@@H]1CCn2c(cc(OCc3cc(F)c(OC4CCCCC4)c(F)c3)nc2=O)N1C [E83, (R)-8-((4-(cyclohexyloxy)-3,5-difluorobenzyl)oxy)-1,2-dimethyl-3,4-dihydro-1H-pyrimido[1,6-a]pyrimidin-6(2H)-one]
– | ≤ 1 | ≤ 100 | [2H]C([2H])(Oc1cc2n(c(=O)n1)CCC(C)(C)N2C)c1cc(F)cc(F)c1 [E75, 8-((3,5-difluorophenyl)dideuteromethoxy)-1,2,2-trimethyl-3,4-dihydro-1H-pyrimido[1,6-a]pyrimidin-6(2H)-one]
0.398 | ≤ 1 | ≤ 100 | CC1CCn2c(cc(OCc3cc(F)c(F)c(F)c3)nc2=O)N1C (stereo not drawn) [E8, 1,2-dimethyl-8-((3,4,5-trifluorobenzyl)oxy)-3,4-dihydro-1H-pyrimido[1,6-a]pyrimidin-6(2H)-one]
– | ≤ 1 | ≤ 10 | C[C@H]1CCn2c(cc(OCc3cc(F)c(Oc4cncc(C(F)(F)F)c4)c(F)c3)nc2=O)N1C [E150, (S)-8-((3,5-difluoro-4-((5-(trifluoromethyl)pyridin-3-yl)oxy)benzyl)oxy)-1,2-dimethyl-3,4-dihydro-1H-pyrimido[1,6-a]pyrimidin-6(2H)-one]
– | ≤ 1 | ≤ 10 | C[C@@H]1CCn2c(cc(OCc3ccc(Oc4cccc(C(F)(F)F)c4)c(C#N)c3)nc2=O)N1C [E123, (R)-5-(((1,2-dimethyl-6-oxo-2,3,4,6-tetrahydro-1H-pyrimido[1,6-a]pyrimidin-8-yl)oxy)methyl)-2-(3-(trifluoromethyl)phenoxy)benzonitrile]
– | ≤ 1 | – | CC(C)N1c2cc(OCc3ccc(F)c(F)c3)nc(=O)n2CC[C@H]1C [E69, (R)-8-((3,4-difluorobenzyl)oxy)-1-isopropyl-2-methyl-3,4-dihydro-1H-pyrimido[1,6-a]pyrimidin-6(2H)-one]
– | ≤ 1 | – | C[C@H]1CCn2c(cc(OCc3ccc(Oc4cc(F)cc(F)c4)cc3)nc2=O)N1C [E141, (S)-8-((4-(3,5-difluorophenoxy)benzyl)oxy)-1,2-dimethyl-3,4-dihydro-1H-pyrimido[1,6-a]pyrimidin-6(2H)-one]
– | ≤ 1 | – | CC(C)Oc1c(F)cc(COc2cc3n(c(=O)n2)CC[C@H](C)N3C)cc1F [E100, (S)-8-((3,5-difluoro-4-isopropoxybenzyl)oxy)-1,2-dimethyl-3,4-dihydro-1H-pyrimido[1,6-a]pyrimidin-6(2H)-one]
12.6 | – | – | [2H]C([2H])(Oc1cc2n(c(=O)n1)CC[C@@H](C)N2C)c1cc(F)c(F)cc1F [E23, (R)-8-(dideutero(2,4,5-trifluorophenyl)methoxy)-1,2-dimethyl-3,4-dihydro-1H-pyrimido[1,6-a]pyrimidin-6(2H)-one]
0.398 | ≤ 1 | – | CC1CCn2c(cc(OCc3cc(F)c(Oc4cccc(F)c4)c(F)c3)nc2=O)N1 (stereo not drawn) [E5, 8-((3,5-difluoro-4-(3-fluorophenoxy)benzyl)oxy)-2-methyl-3,4-dihydro-1H-pyrimido[1,6-a]pyrimidin-6(2H)-one]
5.01 | – | – | C[C@@H]1CCn2c(cc(OCc3ccc(OC4CCCCC4)c(F)c3)nc2=O)N1C [E67, (R)-8-((4-(cyclohexyloxy)-3-fluorobenzyl)oxy)-1,2-dimethyl-3,4-dihydro-1H-pyrimido[1,6-a]pyrimidin-6(2H)-one]
50.1 | – | – | CC(C)Oc1ccc(COc2cc3n(c(=O)n2)CC[C@@H](C)N3C)cc1F [E51, (R)-8-((3-fluoro-4-isopropoxybenzyl)oxy)-1,2-dimethyl-3,4-dihydro-1H-pyrimido[1,6-a]pyrimidin-6(2H)-one]
– | ≤ 1 | – | C[C@H]1CCn2c(cc(OCc3cc(F)c(OC4CCCCC4)c(F)c3)nc2=O)N1C [E81, (S)-8-((4-(cyclohexyloxy)-3,5-difluorobenzyl)oxy)-1,2-dimethyl-3,4-dihydro-1H-pyrimido[1,6-a]pyrimidin-6(2H)-one]
